Where no end group is shown, it is not given here.

What is called MIC is the smallest concentration in the dilution series that meets the test's criterion for growth inhibition. A low value points to inhibition by little substance.

The test system of series [1] is mouse red blood cells. Kind of series: Hemolytic activity. The class given is cell-based. As to conditions: 200 μM; 8% mouse red blood cells, 1 h, 37°C. As to the method:
RAW 264.7 cells (mouse macrophage cells) were maintained in high-glucose Dulbecco’s modified Eagle medium (DMEM) (Welgene, Daegu, South Korea) supplemented with 10% fetal bovine serum (FBS) (Gibco) and 1% penicillin at 37°C in humidified 5% CO2. Cells (2 × 10^5 cells well^−1) were seeded into DMEM supplemented with 10% FBS medium in a 96-well plate. The MTT assay was performed after culturing the cells in 96-well plates at a density of 2 × 10^5 cells well^−1, followed by treatment with serially diluted PN5, magainin 2, and melittin. After 24 h, the medium was discarded, and 100 μL DMEM and 10% FBS medium containing 0.5 mg mL^−1 MTT were added to each well. After 4 h of incubation, the medium was discarded and dimethyl sulfoxide was added to each well to solubilize the formazan. The optical densities at 570 and 650 nm (OD570 and OD650, respectively) of the treated cells were compared to those of control cells. The hemolytic activity of the peptides was evaluated as the release of hemoglobin from an 8% mRBC suspension. A 100-μL aliquot of the 8% mRBC suspension was added to the wells of a 96-well plate, and 100 μL of peptide solution in phosphate-buffered saline (PBS) was added at a final peptide concentration of 200 μM. After incubation for 1 h at 37°C with shaking (50 rpm), the suspensions were centrifuged at 1,000 × g for 5 min. The absorbance of the supernatant was measured at 414 nm using a Versa Max microplate reader (Molecular Devices). As a control, no hemolysis and complete hemolysis were determined in PBS and 0.1% Triton X-100, respectively. The degree of hemolysis was calculated using the following equation as described in reference: %hemolysis=[(A414withpeptide-A414withPBS)/(A414with0.1%TritonX-100-A414 with PBS)] × 100

Series [2] concerns RAW 264.7 cells. Kind of series: IncuCyte Cytotox green time-dependent cytotoxicity. The class given is cell-based, mouse. As to conditions: 200 μM, 24 h. As to the method: An IncuCyte cytotoxicity assay (Essen BioScience, Inc., Ann Arbor, MI, USA) was performed to evaluate time-dependent cytotoxicity. RAW 264.7 cells (2 × 10^5 cells well^−1) were seeded into 96-well culture plates and then treated with peptides and IncuCyte Cytotox green reagent (Essen BioScience, Inc.). Up to 200 μM PN5 and 25 μM melittin were used to treat RAW 264.7 cells, with the concentrations serially diluted by half. […] The cells were stained with IncuCyte Cytotox green reagent. The viability was measured using IncuCyte software (Essen BioScience, Inc.) ([56]).

For series [3] the following is noted: 200 μg/mL^−1; previous study; cited from earlier work. From the text:
In this study, we confirmed that PN5 has antimicrobial activities against Gram-negative and Gram-positive bacteria, including MDR E. coli. The ASEC strains that were clinically isolated from patients, mentioned in Table S3 in the supplemental material, produced ESBL, which induces resistance to β-lactam antibiotics, and New Delhi metallo-β-lactamase (NDM), which hydrolyzes a class of carbapenems. […] The four PN peptides (PN5, PN7, PN8, and PN10) purified from pine ne ...

For series [4], the system named is S. Typhimurium KCTC 1926. The class given is cell-based, Salmonella enterica serovar Typhimurium. As to conditions: microdilution, NB, 18 to 24 h, 37°C, three independent experiments. As to the method:
(§1) Bacterial cells were cultured at 37°C in the appropriate culture media with shaking (180 rpm). Luria-Bertani broth (LB) (244620; BD Difco) was used for E. coli ATCC 25922, ASEC strains, and B. subtilis KCTC 2217. Nutrient broth (NB) (234000; BD Difco) was used for P. aeruginosa ATCC 27853, S. Typhimurium KCTC 1926, and A. baumannii KCTC 2508. Tryptic soy broth (TSB) (211825; BD Difco) was used for S. aureus ATCC 25923. Finally, brain heart infusion (BHI) (237500; BD Difco) was used for L. monocytogenes KCTC 3710. The antimicrobial activity of each peptide was determined using microdilution assays. To this end, 2-fold serial dilution series of each peptide (from 1 to 64 μM) were added to duplicate media with 10 mM sodium phosphate buffer (pH 7.4). Fifty microliters of the peptide and antibiotic solution was added to each well of a 96-well plate (32096, surface nontreatment; SPL Life Sciences). Then, 50 μL of 2 × 10^5 CFU mL^−1 of bacteria was added to each well, and the samples were incubated for 18 to 24 h without shaking at 37°C.

In series [5] the test system is P. aeruginosa ATCC 27853. The class given is cell-based, Pseudomonas aeruginosa. As to conditions: microdilution, NB, 18 to 24 h, 37°C, three independent experiments. The method, then:
as §1
Background: Broth dilution looks for growth in wells or tubes with falling amounts of substance.

The test system of series [6] is E. coli ATCC 25922 biofilm. As to conditions: 5 × 10^5 CFU mL^−1, 0.2% glucose, 24 h, 37°C, crystal violet A595, three independent experiments. As to the method:
Crystal violet staining was performed to determine the degree of biofilm formation by the E. coli 25922, S. aureus 25923, and ASEC strains. E. coli 25922 and S. aureus 25923 were cultured overnight in LB and TSB media with aeration at 180 rpm, respectively. Bacterial suspensions with 0.2% glucose (5 × 10^5 CFU mL^−1) were added to a 96-well plate (30096, surface treatment; SPL Life Sciences) and incubated for 24 h at 37°C. The supernatant was removed and fixed with 100% methanol. Next, 100 μL of crystal violet was added to the plate and incubated to dye the cells for 1 h, followed by rinsing the cells three times with distilled water (dH2O). After the crystal violet was dissolved with 95% ethanol, the mass of biofilm formation at 595 nm was measured using a Versa Max microplate reader (Molecular Devices). The inhibitory effect of PN5 against biofilm formed by E. coli 25922, S. aureus 25923, and three MDR E. coli strains (ASEC 2, 16, and 18) were determined. These cells were cultured overnight in LB and TSB media. Bacterial suspensions (5 × 10^5 CFU mL^−1) containing 0.2% glucose were added to 96-well plates and PN5 was serially diluted to a final concentration of 32 μM. The minimal biofilm inhibitory concentration (MBIC) was determined in three independent experiments. The percentage of biofilm formation was measured using the equation (A595 of treated biofilm/A595 of untreated biofilm) × 100. Similarly, the MDR ASEC 1 to 19 strains were cultured overnight in LB medium and seeded into 96-well plates with medium containing 0.2% glucose at 5 × 10^5 CFU mL^−1 of the bacterial suspension. Biofilm staining was performed as described above. SYTO 9 (6 μM) fluorescence in LIVE/DEAD BacLight was used to visualize the degree of biofilm formation. […] After 24 h, the culture supernatant of the peptide and bacteria was discarded, and the pellet was fixed with 100% methanol. A fluorescence mixture of SYTO 9 and propidium iodide was then added to each well, and the fluorescence was evaluated with an EVOS FL color imaging system (Thermo Fisher Scientific) with a 4× objective ([22]).

With FKFLARTGKFL-NH2 [PN5], the hemolysis result in series [1] is given as “did not induce hemolysis”. In series [2], the “cytotoxicity, Cytotox green fluorescence” value is on record as “no toxicity”. Moreover, the cytotoxicity entry in series [3] is recorded as “less than 20%”. For the same substance, the minimal inhibitory concentration (MIC) in series [4] turned out to be 2 µM; in series [5] it was 4 µM. Moreover, the “MBIC50 (minimum inhibitory concentration resulting in at least 50% inhibition of biofilm formation)” value in series [6] was 16 (21.22) μM.
